Article PMC6268235, “A New Butanolide Compound from the Aerial Part of Lindera akoensis with Anti-inflammatory Activity” (Molecules, 2012)

What was measured:
[1] = system: LPS-stimulated production of nitrite in RAW264.7 cell; test: Inhibition of LPS-stimulated nitrite (NO) production, Griess reaction; format: cell-based, murine; details: for IC50: Mus musculus, RAW264.7, RAW 264.7 cells, LPS 100 ng/mL, 24 h, Griess reaction, read-out: IC50 (decrease nitrite of LPS-stimulated production)
Text: NO, produced from L-arginine by NO synthase, has various biological actions, e.g., as a defense and regulatory molecule for homeostatic equilibrium. However, in pathophysiologic conditions, such as inflammation, there is an increased production of NO by inducible NO synthase (iNOS). Macrophages have been expected to be an origin of inflammation, because they contain various chemical mediators that may be responsible for several inflammatory stages. The inhibitory activity toward NO production, induced by lipopolysaccharides (LPS), by murine macrophage-derived RAW264.7 cells was assayed.
(§1) A murine macrophage cell line RAW264.7 (BCRC No. 60001) was purchased from the Bioresources Collection and Research Center (BCRC, Hsinchu, Taiwan) of the Food Industry Research and Development Institute (Hsinchu, Taiwan). Cells were cultured in plastic dishes containing Dulbecco’s Modified Eagle Medium (DMEM, Sigma, St. Louis, MO, USA) supplemented with 10% fetal bovine serum (FBS, Sigma) in a CO2 incubator (5% CO2 in air) at 37 °C and subcultured every 3 days at a dilution of 1:5 using 0.05% trypsin-0.02% EDTA in Ca^2+-, Mg^2+-free phosphate-buffered saline (DPBS).
NO production was indirectly assessed by measuring the nitrite levels in the cultured media and serum determined by a colorimetric method based on the Griess reaction. The cells were incubated with butanolides (0, 3.125, 6.25, 12.5, 25 and 50 μg/mL) in the presence of LPS (100 ng/mL) at 37 °C for 24 h. Then, cells were dispensed into 96-well plates, and 100 μL of each supernatant was mixed with the same volume of Griess reagent (1% sulfanilamide, 0.1% naphthylethylenediamine dihydrochloride and 5% phosphoric acid) and incubated at room temperature for 10 min, the absorbance was measured at 540 nm with a Micro-Reader (Molecular Devices). Serum samples were diluted four times with distilled water and deproteinized by adding 1/20 volume of zinc sulfate (300 g/L) to a final concentration of 15 g/L. After centrifugation at 10,000 × g for 5 min at room temperature, 100 μL supernatant was applied to a microtiter plate well, followed by 100 μL of Griess reagent. After 10 min of color development at room temperature, the absorbance was measured at 540 nm with a Micro-Reader. By using sodium nitrite to generate a standard curve, the concentration of nitrite was measured form absorbance at 540 nm.
IC50 values were estimated using a non-linear regression algorithm (Sigma Plot 8.0; SPSS Inc. Chicago, IL, USA). Statistical evaluation was carried out by one-way analysis of variance (ANOVA followed by Scheffe’s multiple range tests).

RAW264.7 cells = test: Cell viability (MTT) in the presence of LPS; format: cell-based; details: RAW 264.7 cells, 100 ng/mL LPS, 24 h
Experimental: as §1
Cells (2 × 10^5) were cultured in 96-well plate containing DMEM supplemented with 10% FBS for 1 day to become nearly confluent. Then cells were cultured with compounds 1–5 in the presence of 100 ng/mL LPS (lipopolysaccharide) for 24 h. After that, the cells were washed twice with DPBS and incubated with 100 μL of 0.5 mg/mL MTT for 2 h at 37 °C testing for cell viability. The medium was then discarded and 100 μL dimethyl sulfoxide (DMSO) was added. After 30-min incubation, absorbance at 570 nm was read using a microplate reader (Molecular Devices, Sunnyvale, CA, USA).

Row | SMILES | IC50 [1] | LD50 (cell viability) (RAW264.7 cells) | anti-inflammatory activity (in words) ([1]; RAW264.7 cells, LPS-stimulated nitrite production)
1 | CCCCCCCCCCCC/C=C/C1=CC(C)OC1=O (centres unmarked) [Compound 2, Akolactone A] | 180 µM | >211.9 µM | –
2 | CCCCCCCCCCC=CC1C(=O)OC(C)C1O (stereo not drawn) [Compound 1, 3β-((E)-dodec-1-enyl)-4β-hydroxy-5β-methyldihydrofuran-2-one] | 44.3 µM | 72.3 µM | –
3 | C=CCCCCCCCCC/C=C1/C(=O)OC(C)[C@@H]1O (stereo partly drawn) [Compound 4, (3E,4α,5β)-3-(dodec-11-enylidene)-4-hydroxy-5-methylbutalactone] | 1.4 µM | 67.1 µM | –
4 | C=CCCCCCCCCC/C=C1\C(=O)OC(C)[C@@H]1O (stereo partly drawn) [Compound 3, (3Z,4α,5β)-3-(dodec-11-enylidene)-4-hydroxy-5-methylbutalactone] | 2.4 µM | 49.3 µM | –
5 | C=C1OC(=O)/C(=C/CCCCCCCCCCC)[C@H]1O [Compound 5, dihydroisoobtusilactone] | 97.9 µM | >178.6 µM | no significant active
